{"source": "patent US20220362279A1", "about": "“USE OF OLIGONUCLEOTIDES FOR THE TREATMENT AND PREVENTION OF PAIN” (CONSEJO NACIONAL DE INVESTIGACIONES CIENTÍFICAS Y TÉCNICAS, priority 2018, published 2022)", "type_in_all_cases": "in vivo, rat", "key": {"[1]": {"tested_on": "rats with postsurgical pain (plantar incision)", "assay": "Opioid sparing: morphine in VEH- or IMT504-pre-treated rats with plantar incision, mechanical withdrawal threshold", "procedure": "In all experiments, the oligodeoxynucleotide (ODN) IMT504, with sequence 5′-[…]-3′ (SEQ ID No 1) was used. The HPLC-grade phosphorothioate ODN (Biosynthesis Inc., Lewisville, Tex., USA) was suspended in sterile saline solution (VEH, 0.9% NaCl; 20 mg/ml; storage concentration) and assayed for LPS contamination. Working concentration doses (6 mg/kg) were obtained by additional dissolving in sterile VEH. The ODN was administered subcutaneously, at a final volume of 200-300 μl, depending on animal weight.\nExperiments addressing the opioid sparing effects of IMT504 included the subcutaneous (s.c.) injection of morphine hydrochloride trihydrate (Neocalmans, 10 mg/ml, Soubeiran Chobet, Buenos Aires, Argentina) at three different concentrations (1, 3 or 10 mg/kg, dissolved in sterile distilled water).\nThe rat hind paw plantar incision model of postoperative pain was used as previously described [Brennan, T. J., E. P. Vandermeulen, and G. F. Gebhart, Characterization of a rat model of incisional pain. Pain, 1996. 64(3): p. 493-501. Briefly, rats were anesthetized using isoflurane (5% induction, 2.5% maintenance, 0.8 l/min O2 flow rate; Piramal Healthcare, UK) and the plantar aspect of the right hind paw was disinfected with povidone iodine. A 1.0-cm longitudinal incision was made 0.5 cm from the end of the heel. The underlying flexor muscle was also incised longitudinally, allowing the muscle origin and insertion to remain intact. After hemostasis by gentle pressure, the skin was closed with sutures of 5-0 nylon.\nRats were divided into injured rats receiving IMT504 (6 mg/kg, dissolved in VEH) or VEH alone, 48h and 24 h prior to surgery. These groups were further subdivided into: 1) Rats followed during 3 days after the injury (n=6 per group), for assessment of pain-like behavior after the co-administration of morphine dissolved in injectable water (vehicle) at different doses, 6 and 24 h after injury; 2) Rats followed during 3 days after the injury (n=6 per group), for assessment of pain-like behavior after the co-administration of injectable water (vehicle) alone, 6 and 24 h after injury; 3) Rats followed during 21 days (n=8), for analysis of the administration of naloxone, 3 days after injury.\nMechanical withdrawal thresholds were assessed by using von Frey nylon monofilaments of different bending forces (1.4, 2, 6, 8, 10, 15 and 26 g; Stoelting Inc., Wooddale, USA) and the modified up-down method of Dixon, as described by Chaplan and cols. (Chaplan, S. R., et al., Quantitative assessment of tactile allodynia in the rat paw. J Neurosci Methods, 1994. 53(1): p. 55-63) , to establish the 50% withdrawal threshold. Results were obtained using the formula: 50% g threshold=[…], where Xf=value (in log units) of the final von Frey hair used; k=tabular value for the pattern of positive/negative responses; and […] difference (in log units) between stimuli. Mechanical withdrawal thresholds were tested 48 h before surgery (basal responses), and 6 h, 1, 3, 7, 14 and 21 days after injury.\nA dose-response experiment to evaluate the effect of the s.c. administration of morphine at different doses (10, 3 and 1 mg/kg), 6 h or 1 day after injury, in VEH- or IMT504-treated rats (time-points were chosen based on the fact that a certain degree of mechanical withdrawal threshold alterations was still present in IMT504-treated rats was done, which allowed to test if within this therapeutic window, it was possible to fully revert pain-like behavior using smaller morphine doses). […]"}, "naïve rats": {"tested_on": "naïve rats", "assay": "Tail immersion test (tail heat nociception) in naïve rats", "settings": "20 mg/kg daily x5; observed up to 22 days; 52° C. bath", "procedure": "Naïve (uninjured and untreated; n=16), CFA injured untreated (n=10), and vehicle-treated CFA (n=9) or SNI rats (n=10) were used as controls. Eight naïve rats remained untreated, four were vehicle-treated, and four received a daily dose of 20 mg/kg IMT504 for five consecutive days. Untreated CFA rats received an intradermal hind paw injection of CFA and no further treatment. Vehicle-treated CFA rats received five daily subcutaneous injections of saline (200 μl), starting seven days after injury. Vehicle-treated SNI rats received one single dose of saline (200 ul), starting seven days after injury.\nFor acute thermal nociception assessment, the tail immersion test was used. The latency of tail-flick reflex to swift immersion of the last 3 cm of the tip of the tail of each rat on a hot bath (52° C.) was measured using a stopwatch (resolution of 0.01 s). This was repeated three times, with 10 s intervals, and an average response was obtained."}, "[2]": {"tested_on": "rats with post-incisional pain", "assay": "Cold allodynia in rats with post-incisional pain (plantar incision)", "settings": "6 mg/kg s.c. 48 h and 24 h before incision; particularly apparent 3 days after injury", "text": "In twenty-four rats anesthetized with Isoflurane (5% induction, 2.5% maintenance, 0.8 L/min O2 flow rate; Scott-Cassara, Argentina), the right hind paw plantar skin was cleaned and disinfected. This was followed by a 1-cm longitudinal incision distal to heel and extending towards the toes, as previously described (Xu J, et al., 2011, 24(5): 508-514). The incision involved both plantar skin and fascia. This was followed by identification and longitudinal incision of plantar […] muscle, leaving its insertions intact. After achieving homeostasica, skin was sutured using a 5-0 nylon suture, protected with an antibacterial cream and the animal was returned to its retention cage, under observation, until full recovery from anesthesia.\nRats were subcutaneously administered 6 mg/kg of IMT504, 48 and 24 h before implementing the post-incisional pain model. This was followed by pain-like behavior testing for up to 21 days after injury.\nFor cold allodynia assessment, the reaction to the application of a drop of acetone onto the plantar surface of the hind paw was used, as previously described. Frequency of withdrawal to cold stimuli was measured."}, "rats with SNI": {"tested_on": "rats with SNI", "assay": "Cold allodynia in rats with spared nerve injury (SNI)", "settings": "single dose of 6 mg/kg seven days after SNI, s.c.", "text": "In twenty-six rats anesthetized with Isoflurane (5% induction, 2.5% maintenance, 0.8 L/min O2 flow rate; Piramal Healthcare, UK), the right sciatic nerve and its three distal branches were exposed by blunt dissection, and the tibial and common peronneal branches completely sectioned and ligated to prevent regeneration. The third branch, the sural nerve, was left intact. The animals received one single injection of ketoprofen for post-surgical pain control and were left to recover from anesthesia in a warm and quiet environment before relocating them in their corresponding cages.\nRats were administered subcutaneously using the LT protocol (FIG. 4A) and a single dose of 6 mg/kg of IMT504. This was followed by pain-like behavior testing for up to six weeks after SNI.\nNaïve (uninjured and untreated; n=16), CFA injured untreated (n=10), and vehicle-treated CFA (n=9) or SNI rats (n=10) were used as controls. Eight naïve rats remained untreated, four were vehicle-treated, and four received a daily dose of 20 mg/kg IMT504 for five consecutive days. Untreated CFA rats received an intradermal hind paw injection of CFA and no further treatment. […]\nFor cold allodynia assessment, the reaction to the application of a drop of acetone onto the plantar surface of the hind paw was used. Both frequency of withdrawal and cold score (pain-like behavior intensity) were measured."}}, "note": "“Also recorded” adds a separate entry of the source. Strand notation (5' to 3'): a small letter for the sugar, then the base; units joined by * are phosphorothioate-linked, units joined directly phosphodiester-linked; [ ] holds rarer units or linkages, { } end groups; capitals alone tell only the bases. d = 2'-deoxy (DNA)"}
{"substance": "IMT504: synthetic phosphorothioate oligodeoxynucleotide with sequence 5′-TCATCATTTTGTCATTTTGTCATT-3′ (SEQ ID No 1) (DNA dT*dC*dA*dT*dC*dA*dT*dT*dT*dT*dG*dT*dC*dA*dT*dT*dT*dT*dG*dT*dC*dA*dT*dT)", "values": [{"measurement": "anti-allodynic effect of pre-emptive IMT504 and 3 mg/kg morphine", "setting": "[1]; 6 h and 1 day after injury challenges", "value": "anti-allodynic effects directly comparable to those described for the 10 mg/kg dose in VEH rats"}, {"measurement": "time post injection of morphine with withdrawal thresholds remaining significantly higher", "setting": "[1]; IMT504-pre-treated rats (6 mg/kg, 48 h and 24 h before surgery), particularly at morphine 3 and 10 mg/kg", "value": "≥ 120", "unit": "min"}, {"measurement": "withdrawal threshold once the effect of the opioid had worn out (240 min)", "setting": "[1]; IMT504 rats receiving 10 mg/kg morphine, 1 day after injury, vs VEH counterparts", "value": "retained a significantly higher withdrawal threshold than their VEH counterparts"}, {"measurement": "reduction in morphine concentration to achieve the same effect as in VEH-treated injured rats receiving the highest dose", "setting": "[1]; area under the curve analyses (FIG. 16, FIG. 17)", "value": 3, "unit": "fold"}, {"measurement": "tail thermal withdrawal latency in naïve rats", "setting": "naïve rats", "value": "did not shown changes; also recorded: did not show any evident changes"}, {"measurement": "cold allodynia after plantar incision", "setting": "[2]", "value": "significant reduction in cold allodynia"}, {"measurement": "cold score", "setting": "rats with SNI", "value": "reduced to basal levels ten days after injury and onwards"}, {"measurement": "cold withdrawal frequency reduced to basal levels", "setting": "rats with SNI", "value": "three weeks after injury"}]}
